Laboratory results taken from patent US9505750B2, “5-aminocyclylmethyl-oxazolidin-2-one derivatives” (priority 2007, dated 2016).

What follows are molecules tested on M. catarrhalis A894 (assay: MIC determination by microdilution in cation-adjusted Mueller-Hinton Broth (NCCLS)). Details: Moraxella catarrhalis, pH 7.2-7.3.
Assay type: cell-based
Procedure: These assays have been performed following the description given in “Methods for dilution Antimicrobial Susceptibility Tests for Bacteria that Grow Aerobically, 4th ed.; Approved standard: NCCLS Document M7-A4; National Committee for Clinical Laboratory Standards: Villanova, Pa., USA, 1997”. Minimal inhibitory concentrations (MICs; mg/l) were determined in cation-adjusted Mueller-Hinton Broth (BBL) by a microdilution method following NCCLS guidelines (National Committee for Clinical Laboratory Standards. Methods for Dilution Antimicrobial Susceptibility). The pH of the test medium was 7.2-7.3. All Example compounds were tested against several Gram-positive and Gram-negative bacteria.

Compound | MIC [µg/mL]
COc1ccc2ncnc(O[C@H]3C[C@@H](CO)N(C[C@@H]4CN(c5ccc6c(c5)NC(=O)CS6)C(=O)O4)C3)c2c1 [Example 5, 6-{(R)-5-[(2S,4S)-2-hydroxymethyl-4-(6-methoxy-quinazolin-4-yloxy)-pyrrolidin-1-ylmethyl]-2-oxo-oxazolidin-3-yl}-4H-benzo[1,4]thiazin-3-one] | ≤ 0.031
COc1ccc2nccc(NC3CCN(C[C@@H]4CN(c5ccc6c(c5)NC(=O)CS6)C(=O)O4)CC3)c2n1 [Example 40, 6-{(R)-5-[4-(6-methoxy-[1,5]naphthyridin-4-ylamino)-piperidin-1-ylmethyl]-2-oxo-oxazolidin-3-yl}-4H-benzo[1,4]thiazin-3-one] | ≤ 0.031
COc1ccc2ncnc(OC3CCN(C[C@@H]4CN(c5cc6c(nn5)OCCO6)C(=O)O4)C3)c2c1 (mixture of isomers) [Example 33, (R)-3-(6,7-dihydro-[1,4]dioxino[2,3-c]pyridazin-3-yl)-5-[(RS)-3-(6-methoxy-quinazolin-4-yloxy)-pyrrolidin-1-ylmethyl]-oxazolidin-2-one] | 0.25
COc1ccc2ncnc(O[C@H]3CN(C[C@@H]4CN(c5ccc6c(c5)NC(=O)CS6)C(=O)O4)C[C@H]3O)c2c1 (relative stereo) [Example 21, 6-{(R)-5-[(3R*,4S*)-3-hydroxy-4-(6-methoxy-quinazolin-4-yloxy)-pyrrolidin-1-ylmethyl]-2-oxo-oxazolidin-3-yl}-4H-benzo[1,4]thiazin-3-one] | ≤ 0.031
COc1ccc2ncnc(O[C@H]3CCN(C[C@@H]4CN(c5ccc6c(c5)NC(=O)CS6)C(=O)O4)C3)c2c1 [Example 3, 6-{(R)-5-[(S)-3-(6-methoxy-quinazolin-4-yloxy)-pyrrolidin-1-ylmethyl]-2-oxo-oxazolidin-3-yl}-4H-benzo[1,4]thiazin-3-one] | ≤ 0.031
COc1ccc2ncnc(O[C@H]3C[C@@H](CN=[N+]=[N-])N(C[C@@H]4CN(c5ccc6c(c5)NC(=O)CS6)C(=O)O4)C3)c2c1 [Example 6, 6-{(R)-5-[(2S,4S)-2-azidomethyl-4-(6-methoxy-quinazolin-4-yloxy)-pyrrolidin-1-ylmethyl]-2-oxo-oxazolidin-3-yl}-4H-benzo[1,4]thiazin-3-one] | ≤ 0.031
COc1ccc2nccc(NC3CN(C[C@@H]4CN(c5ccc6c(c5)NC(=O)CS6)C(=O)O4)C3)c2n1 [Example 36, 6-{(R)-5-[3-(6-methoxy-[1,5]naphthyridin-4-ylamino)-azetidin-1-ylmethyl]-2-oxo-oxazolidin-3-yl}-4H-benzo[1,4]thiazin-3-one] | ≤ 0.031
COc1ccc2nccc(/C=C/C3CCN(C[C@@H]4CN(c5ccc6c(c5)NC(=O)CS6)C(=O)O4)C3)c2n1 (mixture of isomers) [Example 9, 6-((R)-5-{(RS)-3-[(E)-2-(6-methoxy-[1,5]naphthyridin-4-yl)-vinyl]-pyrrolidin-1-ylmethyl}-2-oxo-oxazolidin-3-yl)-4H-benzo[1,4]thiazin-3-one] | ≤ 0.031
COc1ccc2ncc(F)c(CNC3CN(C[C@@H]4CN(c5ccc6c(c5)NC(=O)CO6)C(=O)O4)C3)c2n1 [Example 26, 6-((R)-5-{3-[(3-fluoro-6-methoxy-[1,5]naphthyridin-4-ylmethyl)-amino]-azetidin-1-ylmethyl}-2-oxo-oxazolidin-3-yl)-4H-benzo[1,4]oxazin-3-one] | ≤ 0.031
COc1ccc2ncnc(O[C@@H]3CCN(C[C@@H]4CN(c5ccc6c(c5)NC(=O)CS6)C(=O)O4)C3)c2c1 [Example 2, 6-{(R)-5-[(R)-3-(6-methoxy-quinazolin-4-yloxy)-pyrrolidin-1-ylmethyl]-2-oxo-oxazolidin-3-yl}-4H-benzo[1,4]thiazin-3-one] | ≤ 0.031
COc1ccc2nccc(OC3CN(C[C@@H]4CN(c5ccc6c(c5)NC(=O)CS6)C(=O)O4)C3)c2n1 [Example 1, 6-{(R)-5-[3-(6-methoxy-[1,5]naphthyridin-4-yloxy)-azetidin-1-ylmethyl]-2-oxo-oxazolidin-3-yl}-4H-benzo[1,4]thiazin-3-one] | ≤ 0.031
